Test results reported in patent publication US20040019026A1, “Compounds useful for treating hypertriglyceridemia” (priority 2000, published 2004).
Values joined by “and” are separate entries in the source; they are usually repeats but may differ in a detail not shown here. Equal values may be shown once.

How the values were obtained:
[1] = test system: hypertriglyceridemic patients; assay: Hypertriglyceridemic patients with high or low HDL, 1200 mg daily: plasma triglycerides (Example 2); type: in vivo, human; details: for Triglyceride levels: 4 patients with low HDL levels
Description: Five hypertriglyceridemic patients had high baseline HDL levels (>50 mg/dL, 64.2±8.5, n=10, mean±S.D.) and four hypertriglyceridemic patients had low HDL levels 40.4±4.1, n=8). They were treated as before, as described in Example 1, except they received 1200 mg of 16α-fluoro-5-androsten-17-one daily. Controls were set up so that they received 1200 mg of placebo. The triglyceride concentration in the plasma were measured pretreatment and at the end of the study.
In those patients with high HDL levels, the triglycerides fell from 330±163 (n=10) to 214±56.1 (n=5). However, in 4 patients with low HDL levels (40.0±4.1), treatment with 1200 mg of 16α-fluoro-5-androsten-17-one daily for 3 to 12 weeks lowered triglyceride levels from 245±55.1 (n=8) to 139±10.6 (n=4), p<0.01.

[2] = test system: patients with rheumatoid arthritis; assay: Trial in arthritis patients, 1200 mg oral fluasterone daily: HDL levels (Example 5b); type: in vivo, human
Description: In this trial patients with rheumatoid arthritis were treated for 3 to 12 weeks with 1200 mg oral fluasterone daily. A placebo group was also included.

[3] = test system: normal young men and women; assay: Phase I trial, oral fluasterone 14 days: HDL levels (Example 5a); type: in vivo, human
Description: (a) In a phase I trial in normal young men and women fluasterone was administered in a daily oral dose of 800 mg or 1600 mg for 14 days. The effect of this treatment on HDL levels in males and females is seen in the table hereinbelow.

[4] = test system: male BKS.Cg-m+/+Leprdb mice; assay: Mortality during treatment of diabetic mice (Example 9); type: in vivo
[5] = test system: male BKS.Cg-m+/+Leprdb mice; assay: Buccal administration to diabetic mice: fasting plasma triglycerides (Example 3); type: in vivo
From the text: The following example, tested the effects of buccal administration of 16α-fluoro-5-andorsten-17-one (hereinafter “drug”).
Eight-week-old male BKS.Cg-m^+/+Lepr^db mice were obtained from Jackson Laboratories. The mice were initially housed five per cage on Alphacel bedding with ad libitum access to Purina 5015 chow and acidified water. The mice wee housed in the Central Animal Facility (6th Floor, Pharmacy building) with twelve hours of alternating light and darkness.
Five days later, the chow was removed from the mice at approximately 3:30 p.m. This was done so that a fasting plasma glucose level could be obtained on the next day. The next day, a pretreatment plasma glucose determination was made. The mice were lightly anesthetized with Isoflurane and were bled form the orbital sinus (˜400 μL of blood was taken). The blood was obtained between 10:00 a.m. and noon. Blood was kept on ice until analysis. After the blood for the glucose measurement was taken out, the remaining blood was centrifuged at 3000×g for 15 minutes. The plasma was removed and frozen for use in determining plasma triglyceride levels.
Plasma triglyceride levels were determined with a Sigma kit (334-UV). The determination is based on the enzymatic hydrolysis of triglycerides to glycerol and free fatty acids by lipase. Glycerol was subsequently phosphorylated by ATP to produce glycerol-I-phosphate and ADP. ATP was regenerated by a pyruvate kinase-catalyzed reaction between ADP […] with simultaneous oxidation of equimolar amounts of NADH in the presence of lactate dehydrogenase. NADH absorbs at 340 nm, thus the decrease in absorbance, measured at this wavelength, is directly proportional to the triglyceride concentration in this sample.
Triglyceride Reagent A (containing ATP, lactate dehydrogenase, lipase, NADH, phosphoenol pyruvate, pyruvate kinase) and Triglyceride Reagent B were reconstituted with 10 mL and 2 mL of distilled water respectively. The Sample Reagent was prepared by adding 0.25 mL of Triglyceride reagent B to 10 mL to Triglyceride Reagent A. Blank, standard (50, 100 and 200 mg/dL) and sample tubes were prepared. One mL of Sample Reagent was added to all tubes. To the Blank tube, 20 μL of distilled water was added. For each Sample tube, 20 μL of plasma was added to the tube. All tubes were incubated at room temperature for 10 minutes. The tubes were read against a Reference containing distilled water. Triglyceride concentration in the samples were calculated by subtracting the absorbance of the Sample form the absorbance of the Blank and using the following formula: […]
One week after obtaining the mice, the mice were distributed into either groups of 6 mice (Control, buccal and 5 mg/kg drug buccal), or 7 mice (10 mg/kg drug buccal). The mice were weighed.
The buccally administered groups were treated with a suspension of drug, 16α-5-androsten-17-one obtained from Eminent Services Corp. The suspension consisted of 100 mg/mL of micronized fluasterone (16α-fluoro-5-androsten-17-one) in 0.9% saline plus 2% Tween 80 and 0.4% carboxymethyl cellulose. The mice were lightly anesthetized with isoflurane and then injected i.m. with 0.05 mL of a solution of ketamine (50 mg/kg), xylazine (10 mg.kg) and atropine (0.1 mg/kg) injected near tail). Approximately 10 minutes post injection, while the animals were anesthetized, the mice were placed on their backs and were treated with one-half of the dose of drug necessary in each buccal area. The mice remained anesthetized and on their backs for approximately 30 minutes post-treatment. The 5 mg/kg drug group was treated with 2.04 μL of suspension (1.02 μL per buccal area) and the 10 mg/kg drug group was treated with 4.2 μL(2.1 μL per buccal area) while the Control Buccal group received 4.2 μL (2.1 μL per buccal area) for the duration of the experiment. The cages of the mice were placed on heating pads on a low temperature to prevent loss of animals due to hypothermia during anesthesia. […]

**Q.** Which results are given for `C[C@]12CCCCC1=CC[C@@H]1[C@@H]2CC[C@]2(C)C(=O)[C@H](F)C[C@@H]12` [fluasterone, 16α-fluoro-5-androsten-17-one]?
**A.** Triglyceride levels ([1]; after 1200 mg daily for 3 to 12 weeks, p<0.01): 139±10.6; Triglyceride levels ([1]; pretreatment): 245±55.1; Triglycerides ([1]; patients with high HDL levels (>50 mg/dL), pretreatment): 330±163; Triglycerides ([1]; patients with high HDL levels, after 1200 mg daily): 214±56.1; HDL Levels ([2]; Combined (20), pretreatment): 57.4 ± 14.7; HDL Levels ([2]; Combined, treatment 1200 mg oral daily, 3 to 12 weeks, p < 0.02): 46.9 ± 8.9; HDL Levels ([2]; Females (16), pretreatment): 59.8 ± 14.6 (16); HDL Levels ([2]; Females, treatment 1200 mg oral daily, 3 to 12 weeks, p < 0.01): 46.8 ± 9.6; HDL Levels ([2]; Males (4), pretreatment): 47.0 ± 9.1 (4); HDL Levels ([2]; Males (4), treatment 1200 mg oral daily, 3 to 12 weeks): 47.0 ± 5.8 (4); HDL Levels ([3]; 800 mg daily oral for 14 days, Females (6), treatment, less than pretreatment, p < 0.015): 46.1 ± 6.2 mg/dL; HDL Levels ([3]; 800 mg daily oral for 14 days, Males (6), treatment): 45.3 ± 15.9 mg/dL; HDL Levels ([3]; 800 mg daily oral, Females (6), pretreatment): 59.2 ± 7.0 mg/dL; HDL Levels ([3]; 800 mg daily oral, Males (6), pretreatment): 50.3 ± 20.1 mg/dL; HDL Levels ([3]; 1600 mg daily oral for 14 days, Females (5), treatment): 43.0 ± 8.1 mg/dL; HDL Levels ([3]; 1600 mg daily oral for 14 days, Males (7), treatment): 40.2 ± 7.4 mg/dL; HDL Levels ([3]; 1600 mg daily oral, Females (5), pretreatment): 45.3 ± 10.1 mg/dL; HDL Levels ([3]; 1600 mg daily oral, Males (7), pretreatment): 46.1 ± 6.6 mg/dL; Mortality (mice died) ([4]; 5 mg/kg, i.p. group, about two weeks later): 1 mouse; Mortality (mice died) ([4]; 200 mg/kg oral group, about 17 days later): 1 mouse; Plasma triglycerides ([5]; 5 mg/kg buccal group, pre-treatment, group mean): 138.4 ± 44.6 mg/dL; Plasma triglycerides ([5]; 5 mg/kg buccal group, pre-treatment, individual mice, listed as drug): 116.8 mg/dL and 222.8 mg/dL and 120.6 mg/dL and 110.7 mg/dL and 153.8 mg/dL and 105.9 mg/dL; Plasma triglycerides ([5]; 5 mg/kg buccal, after 6 days of treatment, group mean, p < 0.01 vs. control buccal): 110.6 ± 28.0 mg/dL; Plasma triglycerides ([5]; 5 mg/kg buccal, after 6 days of treatment, individual mice, listed as drug): 77.2 mg/dL and 106.0 mg/dL and 87.3 mg/dL and 414.0 mg/dL and 146.6 mg/dL and 105.4 mg/dL; Plasma triglycerides ([5]; 5 mg/kg buccal, after 13 days of treatment, group mean, p < 0.0005 vs. Control buccal): 82.0 ± 12.3 mg/dL; Plasma triglycerides ([5]; 5 mg/kg buccal, after 13 days of treatment, individual mice, listed as drug): 97.8 mg/dL and 89.3 mg/dL and 65.3 mg/dL and 79.1 mg/dL and 78.3 mg/dL; Plasma triglycerides ([5]; 10 mg/kg buccal group, pre-treatment, group mean): 118.7 ± 38.1 mg/dL; Plasma triglycerides ([5]; 10 mg/kg buccal group, pre-treatment, individual mice, listed as drug): 97.1 mg/dl and 102.1 mg/dl (2×) and 89.4 mg/dl and 184.4 mg/dl and 93.7 mg/dl and 162.1 mg/dl; Plasma triglycerides ([5]; 10 mg/kg buccal, after 6 days of treatment, group mean, p < 0.01 vs. Control buccal): 96.5 ± 32.4 mg/dL; Plasma triglycerides ([5]; 10 mg/kg buccal, after 6 days of treatment, individual mice, listed as drug): 108.7 mg/dL and 83.5 mg/dL and 96.8 mg/dL and 61.2 mg/dL and 104.6 mg/dL and 64.3 mg/dL and 156.7 mg/dL; Plasma triglycerides ([5]; 10 mg/kg buccal, after 13 days of treatment, group mean, P < 0.001 vs. Control buccal): 104.0 ± 16.6 mg/dL; Plasma triglycerides ([5]; 10 mg/kg buccal, after 13 days of treatment, individual mice, listed as drug): 102.0 mg/dL and 83.5 mg/dL and 93.6 mg/dL and 133.5 mg/dL and 118.1 mg/dL and 97.8 mg/dL and 99.2 mg/dL
